In ChEMBL document CHEMBL2424528, “Novel tetrahydropyran analogs as dipeptidyl peptidase IV inhibitors: Profile of clinical candidate (2R,3S,5R)-2- (2,5-difluorophenyl)-5-(4,6-dihydropyrrolo [3,4-c]pyrazol-5-(1H)-yl)tetrahydro-2H-pyran-3-amine (23) [corrected]” (Bioorg Med Chem Lett, 2013):
Blank lines part the entries; values can stand above or below the compound they belong to. The source made the active and inactive calls. No cut-off for these calls is given here.

Experiments:
[1] = target: Dipeptidyl peptidase 2 (Homo sapiens, UniProt Q9UHL4); experiment: Inhibition of QPP (unknown origin)
[2] = target: Dipeptidyl peptidase 8 (Homo sapiens, UniProt Q6V1X1); experiment: Inhibition of human DPP8
Dipeptidyl peptidase 8, sequence (Q6V1X1 whole entry): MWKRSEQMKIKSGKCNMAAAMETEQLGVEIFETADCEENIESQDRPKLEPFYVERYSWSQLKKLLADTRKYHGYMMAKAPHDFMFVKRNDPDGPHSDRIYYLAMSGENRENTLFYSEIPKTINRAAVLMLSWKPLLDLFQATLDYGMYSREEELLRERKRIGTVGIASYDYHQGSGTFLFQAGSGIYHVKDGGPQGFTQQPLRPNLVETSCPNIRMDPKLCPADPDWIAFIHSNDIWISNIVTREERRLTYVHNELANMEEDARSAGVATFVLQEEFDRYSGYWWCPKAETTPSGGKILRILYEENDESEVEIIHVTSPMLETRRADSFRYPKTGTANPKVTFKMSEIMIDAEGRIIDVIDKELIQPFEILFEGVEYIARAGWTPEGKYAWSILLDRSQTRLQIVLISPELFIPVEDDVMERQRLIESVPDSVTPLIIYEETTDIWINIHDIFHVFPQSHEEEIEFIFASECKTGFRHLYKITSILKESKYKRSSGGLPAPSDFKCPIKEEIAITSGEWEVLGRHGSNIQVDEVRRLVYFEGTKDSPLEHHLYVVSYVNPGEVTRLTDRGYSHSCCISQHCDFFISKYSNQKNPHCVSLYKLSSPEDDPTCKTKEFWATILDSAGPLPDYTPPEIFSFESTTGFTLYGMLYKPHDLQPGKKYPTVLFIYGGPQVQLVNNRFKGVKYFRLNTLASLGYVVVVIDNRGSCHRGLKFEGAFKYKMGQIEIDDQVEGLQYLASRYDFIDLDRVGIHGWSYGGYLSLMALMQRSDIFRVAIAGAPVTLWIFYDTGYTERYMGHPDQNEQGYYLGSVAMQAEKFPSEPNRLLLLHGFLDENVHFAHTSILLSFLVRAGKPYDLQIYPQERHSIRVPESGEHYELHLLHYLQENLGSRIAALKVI

[3] = target: T1, Prolyl endopeptidase FAP (Homo sapiens, UniProt Q12884); experiment: Inhibition of human FAP
T1 sequence (Q12884 whole entry): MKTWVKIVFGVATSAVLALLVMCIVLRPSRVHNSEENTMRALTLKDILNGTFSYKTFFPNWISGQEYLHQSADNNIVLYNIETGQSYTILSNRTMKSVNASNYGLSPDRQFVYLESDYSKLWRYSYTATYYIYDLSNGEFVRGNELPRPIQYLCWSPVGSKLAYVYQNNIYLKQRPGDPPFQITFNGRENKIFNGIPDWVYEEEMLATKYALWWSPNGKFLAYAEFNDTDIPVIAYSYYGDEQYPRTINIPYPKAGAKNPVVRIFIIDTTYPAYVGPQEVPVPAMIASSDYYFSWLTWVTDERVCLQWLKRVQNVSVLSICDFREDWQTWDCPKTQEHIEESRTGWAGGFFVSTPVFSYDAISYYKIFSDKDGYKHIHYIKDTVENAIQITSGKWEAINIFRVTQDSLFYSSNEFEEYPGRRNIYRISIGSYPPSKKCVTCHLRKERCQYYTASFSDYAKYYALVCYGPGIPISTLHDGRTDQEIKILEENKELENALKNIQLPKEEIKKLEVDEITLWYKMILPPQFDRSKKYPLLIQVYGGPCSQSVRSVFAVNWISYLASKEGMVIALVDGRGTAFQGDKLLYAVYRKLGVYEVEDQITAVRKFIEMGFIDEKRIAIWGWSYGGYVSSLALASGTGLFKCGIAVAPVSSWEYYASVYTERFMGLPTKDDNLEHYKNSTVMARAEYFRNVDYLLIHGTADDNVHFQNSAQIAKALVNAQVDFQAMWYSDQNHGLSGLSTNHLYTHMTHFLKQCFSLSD

[4] = Cmax in rat at 2 mg/kg, po; format: ADME, organism-based; design: dose 2 mg/kg, route oral; details: in vivo
[5] = Volume of distribution at steady state in rhesus monkey at 1 mg/kg, iv and 2 mg/kg, po; format: ADME, organism-based, Macaca mulatta; details: in vivo, read-out: Vdss
[6] = tested on: Mus musculus; experiment: In vivo inhibition of DPP4 in lean mouse model at 0.3 mg/kg administered 10 mins prior to dextrose challenge; format: functional; design: scale not given: the % may be the effect or the level left
[7] = species on record: Mus musculus; experiment: Induction in plasma GLP-1 level in lean mouse; format: functional, organism-based
[8] = Tmax in rat at 1 mg/kg, iv and 2 mg/kg, po; format: ADME, organism-based; details: in vivo
[9] = Volume of distribution at steady state in rat at 1 mg/kg, iv and 2 mg/kg, po; format: ADME, organism-based; details: in vivo, read-out: Vdss
[10] = tested on: Mus musculus; experiment: Antidiabetic activity in orally dosed lean mouse assessed as reduction in blood glucose excursion administered 1 hr prior to dextrose challenge by oral glucose tolerance test; format: functional, organism-based
[11] = Oral bioavailability in rhesus monkey at 2 mg/kg; format: ADME, organism-based, Macaca mulatta; details: in vivo
[12] = tested on: Mus musculus; experiment: Antidiabetic activity in wild type lean mouse assessed as inhibition of blood glucose excursion at 3 mg/kg administered 1 hr prior to dextrose challenge by oral glucose tolerance test; format: functional
[13] = Oral bioavailability in rat at 2 mg/kg; format: ADME, organism-based; details: in vivo
[14] = target: Voltage-dependent L-type calcium channel subunit alpha-1C (Homo sapiens, UniProt Q13936); experiment: Inhibition of Cav1.2 channel (unknown origin)
Voltage-dependent L-type calcium channel subunit alpha-1C, sequence (Q13936 whole entry): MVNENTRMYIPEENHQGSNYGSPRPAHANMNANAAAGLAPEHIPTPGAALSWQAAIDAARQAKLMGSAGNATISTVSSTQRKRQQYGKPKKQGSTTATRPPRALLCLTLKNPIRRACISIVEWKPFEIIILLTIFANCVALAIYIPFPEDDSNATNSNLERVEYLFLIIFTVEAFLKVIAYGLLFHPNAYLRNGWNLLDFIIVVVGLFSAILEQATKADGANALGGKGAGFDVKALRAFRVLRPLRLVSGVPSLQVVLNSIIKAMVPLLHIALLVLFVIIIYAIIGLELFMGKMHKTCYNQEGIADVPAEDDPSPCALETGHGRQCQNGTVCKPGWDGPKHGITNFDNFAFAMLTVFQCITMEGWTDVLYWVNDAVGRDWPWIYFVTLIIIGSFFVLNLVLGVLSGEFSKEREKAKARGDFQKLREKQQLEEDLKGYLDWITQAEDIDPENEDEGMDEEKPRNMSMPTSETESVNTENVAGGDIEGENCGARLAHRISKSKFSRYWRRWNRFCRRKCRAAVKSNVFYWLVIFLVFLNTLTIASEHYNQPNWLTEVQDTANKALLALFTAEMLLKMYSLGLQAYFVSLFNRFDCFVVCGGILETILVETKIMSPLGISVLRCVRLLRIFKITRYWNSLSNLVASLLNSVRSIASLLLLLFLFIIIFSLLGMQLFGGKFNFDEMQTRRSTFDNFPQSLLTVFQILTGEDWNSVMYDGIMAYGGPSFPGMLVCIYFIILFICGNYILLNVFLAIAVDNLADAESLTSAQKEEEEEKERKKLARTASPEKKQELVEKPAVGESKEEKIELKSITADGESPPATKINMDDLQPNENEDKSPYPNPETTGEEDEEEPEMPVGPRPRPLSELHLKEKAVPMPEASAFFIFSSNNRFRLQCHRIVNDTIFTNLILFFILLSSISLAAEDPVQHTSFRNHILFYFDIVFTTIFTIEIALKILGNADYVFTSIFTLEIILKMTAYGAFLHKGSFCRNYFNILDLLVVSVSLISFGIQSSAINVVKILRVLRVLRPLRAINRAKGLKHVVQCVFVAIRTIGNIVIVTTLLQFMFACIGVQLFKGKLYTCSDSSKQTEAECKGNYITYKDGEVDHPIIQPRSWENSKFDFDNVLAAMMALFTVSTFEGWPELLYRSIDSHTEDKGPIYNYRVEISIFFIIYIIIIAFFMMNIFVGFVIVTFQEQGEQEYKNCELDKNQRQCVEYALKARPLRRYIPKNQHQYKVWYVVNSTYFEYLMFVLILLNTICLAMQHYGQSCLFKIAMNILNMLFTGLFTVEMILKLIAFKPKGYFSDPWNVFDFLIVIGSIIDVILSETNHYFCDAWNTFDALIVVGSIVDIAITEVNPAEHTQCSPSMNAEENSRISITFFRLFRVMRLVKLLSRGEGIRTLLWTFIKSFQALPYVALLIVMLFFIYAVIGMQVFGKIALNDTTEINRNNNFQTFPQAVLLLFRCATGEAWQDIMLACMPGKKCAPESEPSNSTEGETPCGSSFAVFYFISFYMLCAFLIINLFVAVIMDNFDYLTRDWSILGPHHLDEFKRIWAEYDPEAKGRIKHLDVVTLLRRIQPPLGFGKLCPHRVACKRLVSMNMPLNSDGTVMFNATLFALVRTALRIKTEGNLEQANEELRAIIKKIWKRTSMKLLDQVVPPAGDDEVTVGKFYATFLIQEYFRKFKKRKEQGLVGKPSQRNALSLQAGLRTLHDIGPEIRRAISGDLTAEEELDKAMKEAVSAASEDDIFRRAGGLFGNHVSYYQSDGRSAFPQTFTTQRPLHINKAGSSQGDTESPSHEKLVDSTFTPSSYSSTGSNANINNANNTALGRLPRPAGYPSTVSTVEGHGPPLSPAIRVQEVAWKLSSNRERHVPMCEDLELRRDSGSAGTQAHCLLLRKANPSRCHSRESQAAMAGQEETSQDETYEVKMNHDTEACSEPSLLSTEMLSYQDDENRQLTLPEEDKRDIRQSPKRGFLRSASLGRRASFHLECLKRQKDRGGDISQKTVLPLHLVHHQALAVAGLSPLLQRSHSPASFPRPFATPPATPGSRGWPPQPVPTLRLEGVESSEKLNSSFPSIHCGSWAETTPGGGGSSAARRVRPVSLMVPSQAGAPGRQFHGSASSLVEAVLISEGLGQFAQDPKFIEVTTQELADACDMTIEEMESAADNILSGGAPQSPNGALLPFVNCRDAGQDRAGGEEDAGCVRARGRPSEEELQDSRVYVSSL

[15] = Plasma clearance in beagle dog at 1 mg/kg, iv and 2 mg/kg, po; format: ADME, organism-based, Canis lupus familiaris
[16] = Terminal half life in rat at 1 mg/kg, iv and 2 mg/kg, po; format: ADME, organism-based; details: in vivo, read-out: beta t1/2 (converted)
[17] = tested on: Mus musculus; experiment: Antidiabetic activity in DPP-4i-deficient lean mouse assessed as inhibition of blood glucose excursion at 3 mg/kg administered 1 hr prior to dextrose challenge by oral glucose tolerance test relative to control; format: functional, organism-based; design: dose 3 mg/kg
[18] = tested on: Mus musculus; experiment: Induction in plasma GLP-1 level in lean mouse at 1 mg/kg; format: functional, organism-based; design: dose 1 mg/kg
[19] = target: Voltage-gated inwardly rectifying potassium channel KCNH2 (Homo sapiens, UniProt Q12809); experiment: Inhibition of human ERG channel
Voltage-gated inwardly rectifying potassium channel KCNH2, sequence (Q12809 whole entry): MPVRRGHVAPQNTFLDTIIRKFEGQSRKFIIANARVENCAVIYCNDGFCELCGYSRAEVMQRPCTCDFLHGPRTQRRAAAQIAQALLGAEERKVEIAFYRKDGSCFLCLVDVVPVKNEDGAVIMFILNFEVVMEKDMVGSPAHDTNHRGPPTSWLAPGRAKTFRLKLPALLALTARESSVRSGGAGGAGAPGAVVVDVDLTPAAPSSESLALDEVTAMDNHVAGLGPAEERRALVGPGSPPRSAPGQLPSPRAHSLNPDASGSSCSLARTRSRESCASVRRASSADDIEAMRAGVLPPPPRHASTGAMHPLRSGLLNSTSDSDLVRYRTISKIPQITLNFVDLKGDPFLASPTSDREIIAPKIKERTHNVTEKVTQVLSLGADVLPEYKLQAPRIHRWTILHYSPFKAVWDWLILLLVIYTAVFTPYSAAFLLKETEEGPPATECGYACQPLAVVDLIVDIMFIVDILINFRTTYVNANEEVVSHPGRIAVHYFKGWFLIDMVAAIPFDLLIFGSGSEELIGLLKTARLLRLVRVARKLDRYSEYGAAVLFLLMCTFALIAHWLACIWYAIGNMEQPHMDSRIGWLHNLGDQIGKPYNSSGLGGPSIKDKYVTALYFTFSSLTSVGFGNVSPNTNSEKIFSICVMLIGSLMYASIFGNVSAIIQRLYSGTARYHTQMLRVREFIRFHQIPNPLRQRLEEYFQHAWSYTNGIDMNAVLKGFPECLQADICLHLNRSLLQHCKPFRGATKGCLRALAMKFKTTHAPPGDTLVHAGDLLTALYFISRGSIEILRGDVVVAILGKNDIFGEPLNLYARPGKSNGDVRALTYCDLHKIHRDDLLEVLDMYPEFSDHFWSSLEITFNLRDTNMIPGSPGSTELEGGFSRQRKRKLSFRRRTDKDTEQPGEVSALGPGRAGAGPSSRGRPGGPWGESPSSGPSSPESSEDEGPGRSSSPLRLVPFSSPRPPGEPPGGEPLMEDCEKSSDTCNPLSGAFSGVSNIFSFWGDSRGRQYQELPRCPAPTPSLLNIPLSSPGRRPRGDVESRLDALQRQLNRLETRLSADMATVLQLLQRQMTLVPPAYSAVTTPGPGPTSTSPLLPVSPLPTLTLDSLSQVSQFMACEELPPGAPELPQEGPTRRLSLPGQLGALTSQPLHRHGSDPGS

[20] = Terminal half life in beagle dog at 1 mg/kg, iv and 2 mg/kg, po; format: ADME, organism-based, Canis lupus familiaris; details: in vivo, read-out: beta t1/2 (converted)
[21] = tested on: Mus musculus; experiment: Antidiabetic activity in lean mouse assessed as reduction in blood glucose AUC at 3 mg/kg, po administered 1 hr prior to dextrose challenge by oral glucose tolerance test; format: functional; design: scale not given: the % may be the effect or the level left
[22] = Tmax in beagle dog at 1 mg/kg, iv and 2 mg/kg, po; format: ADME, organism-based, Canis lupus familiaris; details: in vivo
[23] = Tmax in rhesus monkey at 1 mg/kg, iv and 2 mg/kg, po; format: ADME, organism-based, Macaca mulatta; details: in vivo
[24] = tested on: Canis familiaris; experiment: Dose normalized AUC in beagle dog at 2 mg/kg, po; format: ADME, organism-based, Canis lupus familiaris; design: dose 2 mg/kg, route oral; details: in vivo
[25] = Cmax in rhesus monkey at 2 mg/kg, po; format: ADME, organism-based, Macaca mulatta; design: dose 2 mg/kg, route oral; details: in vivo
[26] = Cmax in beagle dog at 2 mg/kg, po; format: ADME, organism-based, Canis lupus familiaris; design: dose 2 mg/kg, route oral; details: in vivo
[27] = Plasma concentration in lean mouse at 0.3 mg/kg administered 10 mins prior to dextrose challenge; format: ADME, organism-based; design: dose 0.3 mg/kg
[28] = Plasma clearance in rhesus monkey at 1 mg/kg, iv and 2 mg/kg, po; format: ADME, organism-based, Macaca mulatta
[29] = tested on: Mus musculus; experiment: Antidiabetic activity in lean mouse assessed as reduction in blood glucose AUC at 0.1 mg/kg, po administered 1 hr prior to dextrose challenge by oral glucose tolerance test; format: functional; design: scale not given: the % may be the effect or the level left
[30] = Plasma clearance in rat at 1 mg/kg, iv and 2 mg/kg, po; format: ADME, organism-based
[31] = tested on: Rhesus monkey; experiment: Dose normalized AUC in rhesus monkey at 2 mg/kg, po; format: ADME, organism-based, Macaca mulatta; design: dose 2 mg/kg, route oral; details: in vivo
[32] = tested on: Rattus norvegicus; experiment: Dose normalized AUC in rat at 2 mg/kg, po; format: ADME, organism-based; design: dose 2 mg/kg, route oral; details: in vivo
[33] = Volume of distribution at steady state in beagle dog at 1 mg/kg, iv and 2 mg/kg, po; format: ADME, organism-based, Canis lupus familiaris; details: in vivo, read-out: Vdss
[34] = Terminal half life in rhesus monkey at 1 mg/kg, iv and 2 mg/kg, po; format: ADME, organism-based, Macaca mulatta; details: in vivo, read-out: beta t1/2 (converted)
[35] = Inhibition of cytochrome P450 (unknown origin); format: ADME; details: human
[36] = tested on: Mus musculus; experiment: In vivo inhibition of DPP4 in lean mouse model administered 10 mins prior to dextrose challenge; format: functional, organism-based
[37] = Oral bioavailability in beagle dog at 2 mg/kg; format: ADME, organism-based, Canis lupus familiaris; details: in vivo
[38] = Dissociation constant, pKa of the compound; format: physicochemical
[39] = tested on: Canis familiaris; experiment: Cardiotoxicity in cardiovascular dog model assessed as QTc prolongation at 3 mg/kg; format: toxicity, organism-based, Canis lupus familiaris, Heart; design: dose 3 mg/kg; details: in vivo
[40] = tested on: Canis familiaris; experiment: Cardiotoxicity in dog model assessed as QTc prolongation up to 30 mg/kg; format: toxicity, organism-based, Canis lupus familiaris; design: dose 30 mg/kg; details: in vivo

- IC50 [1]: > 100 µM
- IC50 [2]: > 100 µM
- IC50 [3]: > 100 µM
Structure (SMILES): N[C@H]1C[C@@H](N2CCn3c(nnc3C(F)(F)F)C2)CO[C@@H]1c1cc(F)ccc1F

- IC50 [2]: > 100 µM
- IC50 [3]: > 100 µM
Structure (SMILES): N[C@H]1C[C@@H](N2Cc3cn[nH]c3C2)CO[C@@H]1c1ccc(F)cc1F

- pKa [38]: 8.6
Structure (SMILES): N[C@H]1C[C@@H](N2Cc3cnc(C(F)(F)F)nc3C2)CC[C@@H]1c1cc(F)c(F)cc1F
- IC50 [19]: 4.8 µM
- Activity [39]: > 5%

- pKa [38]: 7.3
Structure (SMILES): N[C@H]1C[C@@H](N2Cc3cnc(C(F)(F)F)nc3C2)CO[C@@H]1c1cc(F)c(F)cc1F
- Activity [40]: Non-toxic

- IC50 [2]: > 100 µM
- IC50 [3]: > 6.4 µM
Structure (SMILES): N[C@H]1C[C@@H](N2Cc3cn[nH]c3C2)CO[C@@H]1c1cc(F)c(F)cc1F

- IC50 [2]: > 100 µM
- IC50 [3]: > 100 µM
Structure (SMILES): N[C@H]1C[C@@H](N2Cc3cn[nH]c3C2)CO[C@@H]1c1cc(F)c(Cl)cc1F

- IC50 [1]: > 100 µM
- IC50 [3]: > 100 µM
Structure (SMILES): N[C@H]1C[C@@H](N2Cc3nc(C(F)(F)F)[nH]c3C2)CO[C@@H]1c1cc(F)ccc1F

More lines, now with the values behind:

Structure (SMILES): Cc1nc2c(o1)CN([C@H]1CO[C@H](c3cc(F)ccc3F)[C@@H](N)C1)C2
- IC50 [1]: > 100 µM
- IC50 [2]: > 100 µM
- IC50 [3]: > 100 µM

Structure (SMILES): N[C@H]1C[C@@H](N2Cc3ccccc3O2)CO[C@@H]1c1cc(F)ccc1F
- IC50 [3]: > 100 µM

Structure (SMILES): CC1(C)c2nc(C3CC3)ncc2CN1[C@H]1CO[C@H](c2cc(F)ccc2F)[C@@H](N)C1
- IC50 [2]: > 100 µM

Structure (SMILES): N[C@H]1C[C@@H](N2Cc3ccccc3C2=O)CO[C@@H]1c1cc(F)ccc1F
- IC50 [1]: > 100 µM
- IC50 [2]: > 100 µM
- IC50 [3]: > 100 µM

Structure (SMILES): N[C@H]1C[C@@H](N2Cc3cn[nH]c3C2)CO[C@@H]1c1cc(F)ccc1F
- Cmax [4]: 800 nM
- Vd [5]: 4.2 L/kg
- Activity [6]: >80%
- Activity [7]: Dose-dependent effect
- Tmax [8]: 30 min
- Vd [9]: 4.9 L/kg
- Activity [10]: Dose-dependent effect
- bioavailability [11]: 72%
- inhibition in vivo at 3 mg/kg [12]: 53%
- bioavailability [13]: 70%
- inhibition (INH) [14]: Not Active
- clearance [15]: 2.7 mL/min/kg
- half-life [16]: 378 min
- inhibition [17]: inactive
- Activity [18]: Active
- inhibition (INH) ([19]; human): Not Active
- half-life [20]: 780 min
- Activity [21]: 47%
- Tmax [22]: 3.5 h
- Tmax [23]: 1.1 h
- AUC/dose [24]: 16.1 µM·h/mg/kg
- Cmax [25]: 1480 nM
- Cmax [26]: 1920 nM
- concentration at 10 min [27]: 260 nM
- clearance [28]: 5.2 mL/min/kg
- Activity [29]: 27%
- clearance [30]: 9.7 mL/min/kg
- AUC/dose [31]: 7.33 µM·h/mg/kg
- AUC/dose [32]: 3.72 µM·h/mg/kg
- Vd [33]: 3 L/kg
- half-life [34]: 582 min
- inhibition (INH) [35]: Not Active
- Activity [36]: Dose-dependent effect
- bioavailability [37]: 83%

Structure (SMILES): CC1(C)c2cnc(C3CC3)nc2CN1[C@H]1CO[C@H](c2cc(F)ccc2F)[C@@H](N)C1
- IC50 [2]: > 100 µM
- IC50 [3]: > 100 µM

Structure (SMILES): N[C@@H](CC(=O)N1CCn2c(nnc2C(F)(F)F)C1)Cc1cc(F)c(F)cc1F
- Activity [10]: Active

Structure (SMILES): N[C@H]1C[C@@H](N2Cc3cnc(C4CC4)nc3C2)CO[C@@H]1c1cc(F)c(F)cc1F
- IC50 [19]: > 30 µM
- Activity [40]: Non-toxic

Structure (SMILES): N[C@H]1C[C@@H](N2Cc3cn[nH]c3C2)CO[C@@H]1c1cc(F)ccc1Cl
- IC50 [1]: > 100 µM
- IC50 [3]: > 100 µM

Structure (SMILES): N[C@H]1C[C@@H](N2Cc3cn[nH]c3C2)CO[C@@H]1c1ccccc1Cl
- IC50 [1]: > 100 µM
- IC50 [2]: > 100 µM
- IC50 [3]: > 100 µM
